Laboratory results: patent US11261453B2, “Cells expressing apolipoprotein E and uses thereof” (Whitehead Institute for Biomedical Research, priority 2014, dated 2022)

Key:
[1] = tested on: ApoE4-mediated toxicity; conditions: known from other experiments; cited from earlier work
[2] = tested on: ApoE4-mediated toxicity; test: Compound test in ApoE4 hitox yeast strain (PDR1 and PDR3 deleted), optical density at A600 after 24 hours; type: cell-based, Saccharomyces cerevisiae; conditions: A600, FIG. 10
Method: An ApoE4 hitox strain harboring 3-4 copies of the ApoE4 construct and with the drug-pump transcription factors PDR1 and PDR 3 deleted was used in this experiment. Cells were grown in raffinose; cells were diluted into galactose medium (to initiate expression of the expression construct). Test compounds were added to the cultures at various concentrations ranging from 0.25 μM to 32.0 μM; cells were grown for 24 hours after addition of the compounds, and the optical densities were then read at A600.

[3] = tested on: Ste3 endocytosis to the vacuole; test: Ste3-mKate2 endocytosis assay, fluorescence microscopy; type: cell-based, Saccharomyces cerevisiae; conditions: 6-8 hours of induction with galactose, FIG. 13
From the text: The effect of ApoE on endocytosis in yeast was further analyzed using a Ste3-mKate2 assay. Ste3 is a yeast G-protein coupled receptor (GPCR) that natively undergoes endocytosis from the cell surface to the vacuole. When clathrin-mediated endocytosis is disrupted, Ste3 trafficking can be disrupted as well.
The trafficking of Ste3 was observed using fluorescence microscopy by overexpressing a fluorescently-tagged (mKate2) version of Ste3 from a pAG423 galactose-inducible plasmid. The ApoE4 hitox strain described above was transformed with the pAG423-Ste3-mKate2 plasmid. In addition, yeast strains as described in Example 4 harboring expression constructs encoding human neurodegenerative disease-associated proteins alpha-synuclein (α-syn intox) or Aβ (Kar2ss-Aβ strain described in Treusch, S., et al., Science. (2011), 334:1241-5) were also transformed with the pAG423-Ste3-mKate2 plasmid. A strain transformed with a Gal-GFP plasmid served as a negative control. […] (FIG. 13).

| Compound | toxicity of the compound itself to yeast [1] | ability to reduce ApoE4-mediated toxicity ([2]; 0.25 μM to 32.0 μM) | concentrations at which ApoE4-mediated toxicity is reduced [2] | effect on Ste3 endocytosis [3] |
| --- | --- | --- | --- | --- |
| Oc1c(I)cc(Cl)c2cccnc12 [clioquinol] | becomes toxic to yeast at high concentrations | able to reduce ApoE4-mediated toxicity | below 1.5 μM | – |
| Aβ: human amyloid beta expressed in yeast (Kar2ss-Aβ strain) | – | – | – | disruption of Ste3 endocytosis |
